Measurements from patent US10835564B2, “Composition for preventing and treating premature ovarian failure, containing Evodia rutaecarpa bentham extract having protective activity against ovotoxicity” (DONGGUK UNIVERSITY GYEONGJU CAMPUS INDUSTRY-ACADEMY …, priority 2015, dated 2020).

Tested on: CHO-K1 cells
Assay: MTT assay, cytotoxicity against CHO-K1 cells
Type: cell-based, hamster
Conditions: 24 hours, FIG. 4, read-out: concentration at which the viability of CHO-K1 cells became about 50%
Method: The cell viability was analyzed by a 3-(4,5-dimethylthiazol)-2,5-diphenyltetrazolium bromide (MTT) assay method. After CHO-K1 cells at 2×10^4 cells/well were cultured in a 48-well plate and then serum starved for 4 hours, VCD was treated at various concentrations or the respective medicines were pre-treated at 100 μg/ml, VCD (1.5 mM) was sequentially treated, and the cells were cultured under the conditions of 37° C. and 5% CO2 for 24 hours. After 30 μl of an MTT solution (2 mg/ml) per well was added thereto and the resulting mixture was allowed to react in an incubator at 37° C. and 5% CO2 for 3 hours, the MTT solution and the culture solution were completely removed, and then formazan crystallites formed in the cells were dissolved by using 150 μl of dimethyl sulfoxide (DMSO, Sigma-Aldrich, USA), and the absorbance thereof was measured at 595 nm by using an ELISA plate reader (DYNEX, Opsys MR, USA). The cell viability for the control was expressed as a percentage.
The cytotoxicity of VCD against CHO-K1 cells was evaluated by the MTT assay according to Example 1-4, and as a result, the concentration (1.5 mM) at which the viability of CHO-K1 cells by VCD became about 50% was determined (see FIG. 4), and the result was applied to the following experiment. […]

C1CC2OC2CC1C1CO1 (stereo not shown) [VCD, 4-vinylcyclohexene diepoxide]
IC50: 1.5 mM
